Data reported in patent US9757393B2 (priority 2015, dated 2017).

Columns and labels:
[1] = system: G6 Pase mRNA; assay: Semiquantitative RT-PCR, liver tissue: G6 Pase; format: in vivo, C57BL/6J mice; conditions: HFD-fed mice
Experimental: (§1) Experimental Animals: the experiments are conducted under the guidelines of the Institutional Animal Care and Use Committee of Central Taiwan University of Science and Technology. As previously described, four-week-old male C57BL/6J mice (n=63) is purchased from the National Laboratory Animal Breeding and Research Center, Ministry of Science and Technology. After 1-week of acclimatization, mice are designed to initiate the study, and the study lasts for 12 weeks. […] The CON group and high-fat control (HF) group are given with vehicle only. The low-fat diet consisted of fat 10%, whereas the high-fat diet (HFD) consisted of fat 45% (of total energy, % kcal). The compositions of the experimental diets are shown as described. At the end of the study, food is derived from the animals (from 10 p.m. to 10 a.m.). On the next day, the mice are sacrificed, and blood and tissue are collected for analysis. Livers, skeletal muscles, and white adipose tissues (WATs) (including epididymal, mesenteric and retroperitoneal WAT) are excised and weighed, and then immediately stored in a freezer at −80° C. Heparin (30 units/mL) (Sigma) is added to blood samples. Plasma samples are collected by centrifugation at 1600 g for 15 min at 4° C. within 30 min, and plasma is obtained for insulin and leptin level analysis.
(§2) The experiment is performed as in a previously described protocol. Total RNA from the liver tissue is isolated with a Trizol reagent (Molecular Research Center, Inc., Cincinnati, Ohio, USA) according to the manufacturer's directions. Total RNA (1 μg) is reverse transcribed to cDNA with 5 μL of Moloney murine leukemia virus reverse transcriptase (Epicenter, Madison, Wis., USA) as a previously described protocol. […] The relative density of the band is evaluated using AlphaDigiDoc 1201 software (Alpha Innotech Co., San Leandro, Calif., USA). All of the measured PCR products are normalized to the amount of cDNA of GAPDH in each sample.

[2] = system: SREBP2 mRNA; assay: Semiquantitative RT-PCR, liver tissue: SREBP2; format: in vivo, C57BL/6J mice; conditions: HFD-fed mice
Experimental: as §1, §2

[3] = system: PEPCK mRNA; assay: Semiquantitative RT-PCR, liver tissue: PEPCK; format: in vivo, C57BL/6J mice; conditions: HFD-fed mice
Experimental: as §1, §2

[4] = system: apo A-I mRNA; assay: Semiquantitative RT-PCR, liver tissue: apo A-I; format: in vivo, C57BL/6J mice; conditions: HFD-fed mice
Experimental: as §1, §2

[5] = system: adiponectin mRNA; assay: Semiquantitative RT-PCR, liver tissue: adiponectin; format: in vivo, C57BL/6J mice; conditions: HFD-fed mice, 40 mg/kg/day
Experimental: as §1, with “Heparin (30 units/mL) (Sigma) is added to blood samples. Plasma samples are collected by centrifugation at 1600 g for 15 min at 4° C. within 30 min, and plasma is obtained for insulin and leptin level analysis.” left out
The experiment is performed as in a previously described protocol. […] The relative density of the band is evaluated using AlphaDigiDoc 1201 software (Alpha Innotech Co., San Leandro, Calif., USA). All of the measured PCR products are normalized to the amount of cDNA of GAPDH in each sample.

[6] = system: DGAT2 mRNA; assay: Semiquantitative RT-PCR, liver tissue: DGAT2; format: in vivo, C57BL/6J mice; conditions: HFD-fed mice
Experimental: as §1, §2

[7] = system: apo C-III mRNA; assay: Semiquantitative RT-PCR, liver tissue: apo C-III; format: in vivo, C57BL/6J mice; conditions: HFD-fed mice
Experimental: as §1, §2

[8] = system: HFD-fed C57BL/6J mice; assay: Blood glucose, HbA1c, blood lipids, insulin and leptin levels in HFD-fed mice; format: in vivo; conditions: for Blood Profiles FFA / Blood Profiles HDL-C / Blood Profiles HbA1c / Blood Profiles LDL-C: oral gavage daily for 4 weeks; for blood glucose levels / blood insulin levels / blood leptin levels / blood total cholesterol (TC) levels / blood triglyceride (TG) level: vs HF group
Experimental: as §1
Blood Glucose and HbA1c Levels. Blood samples (0.8 mL) are collected from the retro-orbital sinuses of fasting mice, and glucose level is measured by the glucose oxidase method (model 1500; Sidekick Glucose Analyzer; YSI Inc., Yellow Springs, Ohio, USA). Percent HbA1c is detected with a Hemoglobin A1c kit (BioSystems S.A., Barcelona, Spain). Plasma triglycerides (TG), total cholesterol (TC), free fatty acids (FFA), high-density lipoprotein cholesterol (HDL-C), and low density lipoprotein cholesterol (LDL-C) are determined using commercial assay kits (Triglycerides-E test, Cholesterol-E test, and FFA-C test, Wako Pure Chemical, Osaka, Japan; HDL-C-test and LDL-C-test, Roche Diagnostics GmbH, Indianapolis, USA) according to their instructions. A mouse insulin ELISA kit (Sibayagi, Gunma, Japan) and mouse leptin ELISA kit (Morinaga, Yokohama, Japan) are used to measure blood insulin and leptin levels, respectively.

Which “mRNA level of G6 Pase” value ([1]; 10 mg/kg/day) does the source give for `CC(C)[C@@H](C)C=C[C@@H](C)[C@H]1CC[C@H]2C3=CCC4C[C@@H](O)CC[C@]4(C)C3=CC[C@]12C` (stereo partly drawn) [ergostatrien-3β-ol, ergosta-7,9(11),22-trien-3β-ol] here?
The value was “decreased”.

And the “mRNA level of G6 Pase” value ([1]; 20 mg/kg/day)?
The value was “decreased”.

What about the “mRNA level of G6 Pase” value ([1]; 40 mg/kg/day) of the same compound?
Its value is “decreased”.

And the “mRNA level of SREBP2” value ([2]; 10 mg/kg/day)?
The value was “decreased”.

What about the “mRNA level of SREBP2” value ([2]; 20 mg/kg/day) of the same compound?
The value was “decreased”.

And the “mRNA level of SREBP2” value ([2]; 40 mg/kg/day)?
Its value is “decreased”.

And the “mRNA level of PEPCK” value ([3]; 10 mg/kg/day)?
Its value is “decreased”.

What about the “mRNA level of PEPCK” value ([3]; 20 mg/kg/day) of the same compound?
The value was “decreased”.

What about the “mRNA level of PEPCK” value ([3]; 40 mg/kg/day) of the same compound?
Its value is “decreased”.

What about the “mRNA levels of apolipoprotein A-I (apo A-I)” value (“mRNA levels” below) ([4]; 10 mg/kg/day) of the same compound?
The value was “increased”.

What about the “mRNA levels” value ([4]; 20 mg/kg/day) of the same compound?
Its value is “increased”.

What about the “mRNA levels” value ([4]; 40 mg/kg/day) of the same compound?
Its value is “increased”.

What about the “mRNA level of adiponectin” value [5] of the same compound?
Its value is “increase”.

And the “mRNA level of DGAT2” value ([6]; 10 mg/kg/day)?
The value was “decreased”.

And the “mRNA level of DGAT2” value ([6]; 20 mg/kg/day)?
The value was “decreased”.

What about the “mRNA level of DGAT2” value ([6]; 40 mg/kg/day) of the same compound?
The value was “decreased”.

And the “mRNA level of apo C-III” value ([7]; 10 mg/kg/day)?
The value was “decreased”.

And the “mRNA level of apo C-III” value ([7]; 20 mg/kg/day)?
Its value is “decreased”.

What about the “mRNA level of apo C-III” value ([7]; 40 mg/kg/day) of the same compound?
The value was “decreased”.

And the “levels of TG (circulating)” value ([8]; dose not specified)?
The value was “moderate reduction”.

And the “Blood Profiles FFA” value ([8]; 10 mg/kg/day)?
The value was 1.06 ± 0.10 meq/L.

And the “Blood Profiles HDL-C” value ([8]; 10 mg/kg/day)?
The value was 82.2 ± 3.9 mg/dL.

What about the “Blood Profiles HbA1c” value ([8]; 10 mg/kg/day) of the same compound?
Its value is 5.8 ± 0.7 %.

What about the “Blood Profiles FFA” value ([8]; 20 mg/kg/day) of the same compound?
The value was 1.05 ± 0.09 meq/L.

And the “Blood Profiles HDL-C” value ([8]; 20 mg/kg/day)?
Its value is 83.0 ± 2.0 mg/dL.

And the “Blood Profiles HbA1c” value ([8]; 20 mg/kg/day)?
The value was 5.7 ± 0.5 %.

And the “Blood Profiles LDL-C” value ([8]; 20 mg/kg/day)?
Its value is 103.7 ± 10.8 mg/dL.

What about the “Blood Profiles FFA” value ([8]; 40 mg/kg/day) of the same compound?
Its value is 1.03 ± 0.05 meq/L.

And the “Blood Profiles HDL-C” value ([8]; 40 mg/kg/day)?
The value was 83.8 ± 1.6 mg/dL.

What about the “Blood Profiles HbA1c” value ([8]; 40 mg/kg/day) of the same compound?
The value was 5.1 ± 0.3 %.

And the “Blood Profiles LDL-C” value ([8]; 40 mg/kg/day)?
Its value is 86.8 ± 11.5 mg/dL.

What about the blood glucose levels ([8]; 10 mg/kg/day) of the same compound?
Its blood glucose levels is “significantly reduce”.

What about the blood insulin levels ([8]; 10 mg/kg/day) of the same compound?
The blood insulin levels was “decrease”.

What about the blood leptin levels ([8]; 10 mg/kg/day) of the same compound?
Its blood leptin levels is “decrease”.

And the “blood total cholesterol (TC) levels” value ([8]; 10 mg/kg/day)?
The value was “lower”.

And the “blood triglyceride (TG) level” value ([8]; 10 mg/kg/day)?
The value was “decrease”.

And the blood glucose levels ([8]; 20 mg/kg/day)?
Its blood glucose levels is “significantly reduce”.

And the blood insulin levels ([8]; 20 mg/kg/day)?
The blood insulin levels was “decrease”.

And the blood leptin levels ([8]; 20 mg/kg/day)?
Its blood leptin levels is “decrease”.

And the “blood total cholesterol (TC) levels” value ([8]; 20 mg/kg/day)?
The value was “lower”.

What about the “blood triglyceride (TG) level” value ([8]; 20 mg/kg/day) of the same compound?
Its value is “decrease”.

And the blood glucose levels ([8]; 40 mg/kg/day)?
Its blood glucose levels is “significantly reduce”.

And the blood insulin levels ([8]; 40 mg/kg/day)?
Its blood insulin levels is “decrease”.

What about the blood leptin levels ([8]; 40 mg/kg/day) of the same compound?
Its blood leptin levels is “decrease”.

What about the “blood total cholesterol (TC) levels” value ([8]; 40 mg/kg/day) of the same compound?
Its value is “lower”.

What about the “blood triglyceride (TG) level” value ([8]; 40 mg/kg/day) of the same compound?
Its value is “decrease”.
